Patent US9802945B2, “Imidazopyridazine derivatives as modulators of the GABAA receptor activity” (Pfizer Limited, priority 2014, dated 2017)
Counter-ions that a name gives are not always drawn. Like-named read-outs stand apart in the source and are kept apart here.

Assays:
[1] = target: human recombinant GABA A receptor containing the alpha2, beta2, and gamma3 subunits (Homo sapiens, UniProt P47869+Q99928); assay: Radioligand competition binding assay with [3H]Ro-15-1788 (Flumazenil)
Protocol: Membranes were prepared from HEK cells expressing hGABA A alpha2beta2-gamma3 receptor, and validated to ascertain protein concentration, receptor expression and to determine the Kd of the flumazenil as well as the Ki of a standard set of compounds before being used to test new compounds.
100 ul of radioligand and 100 ul of membrane in 50 mM Tris-HCl and 0.05% F127 with 1 ul of test compound was incubated for 2 hours to allow the reaction to achieve equilibrium, and then harvested onto filter plates, dried and counted on a TopCount NXT. The data was analysed, and the Ki values were presented as the geometric mean of at least two replicates.

[2] = target: GABA channels expressing the α1 subunit (GABRA1-GABRB3-GABRG2) in HEK cells (Homo sapiens (Human), UniProt P14867+P18507); assay: QPatch whole-cell patch-clamp electrophysiology, enhancement of GABA current (α1); assay type: cell-based; settings: −60 mV, approximately EC10 GABA
GABA channels expressing the α1 subunit (GABRA1-GABRB3-GABRG2) in HEK cells, sequence (P14867 28-456): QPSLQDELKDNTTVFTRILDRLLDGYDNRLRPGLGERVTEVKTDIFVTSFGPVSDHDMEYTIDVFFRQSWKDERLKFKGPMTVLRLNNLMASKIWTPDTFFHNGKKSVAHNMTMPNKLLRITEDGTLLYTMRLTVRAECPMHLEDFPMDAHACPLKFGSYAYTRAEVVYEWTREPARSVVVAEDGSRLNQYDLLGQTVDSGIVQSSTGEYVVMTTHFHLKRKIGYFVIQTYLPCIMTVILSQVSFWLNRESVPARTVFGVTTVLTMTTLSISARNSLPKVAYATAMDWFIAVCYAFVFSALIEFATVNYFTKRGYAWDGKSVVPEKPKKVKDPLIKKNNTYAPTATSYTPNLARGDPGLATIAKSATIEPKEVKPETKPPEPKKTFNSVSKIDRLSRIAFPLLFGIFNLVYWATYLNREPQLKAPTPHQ
GABA channels expressing the α1 subunit (GABRA1-GABRB3-GABRG2) in HEK cells, sequence (P28472 26-473 partner): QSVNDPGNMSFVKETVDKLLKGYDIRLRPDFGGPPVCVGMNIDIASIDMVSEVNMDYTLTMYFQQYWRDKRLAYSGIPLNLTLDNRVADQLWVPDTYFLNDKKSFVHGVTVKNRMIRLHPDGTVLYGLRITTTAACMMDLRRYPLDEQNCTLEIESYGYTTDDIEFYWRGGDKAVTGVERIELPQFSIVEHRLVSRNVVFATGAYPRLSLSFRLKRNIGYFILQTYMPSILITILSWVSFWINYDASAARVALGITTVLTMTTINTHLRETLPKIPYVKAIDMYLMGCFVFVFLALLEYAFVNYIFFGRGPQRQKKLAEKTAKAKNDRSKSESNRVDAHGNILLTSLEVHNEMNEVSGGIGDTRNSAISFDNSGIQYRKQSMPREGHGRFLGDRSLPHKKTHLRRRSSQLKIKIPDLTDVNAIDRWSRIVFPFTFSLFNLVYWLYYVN
GABA channels expressing the α1 subunit (GABRA1-GABRB3-GABRG2) in HEK cells, sequence (P18507 40-475): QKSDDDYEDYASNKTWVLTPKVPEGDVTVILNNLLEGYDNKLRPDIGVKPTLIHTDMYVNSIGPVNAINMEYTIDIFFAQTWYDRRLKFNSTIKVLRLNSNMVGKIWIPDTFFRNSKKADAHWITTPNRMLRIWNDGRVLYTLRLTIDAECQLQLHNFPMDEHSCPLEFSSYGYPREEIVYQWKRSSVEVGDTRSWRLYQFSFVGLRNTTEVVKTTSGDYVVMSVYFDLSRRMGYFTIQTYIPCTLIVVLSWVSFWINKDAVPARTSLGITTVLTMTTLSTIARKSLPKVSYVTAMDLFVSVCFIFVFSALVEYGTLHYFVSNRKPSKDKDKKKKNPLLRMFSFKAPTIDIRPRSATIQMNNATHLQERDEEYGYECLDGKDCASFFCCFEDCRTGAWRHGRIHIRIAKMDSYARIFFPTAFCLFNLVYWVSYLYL
Protocol: (§1) Cell suspension containing HEK cells expressing GABRA2-GABRB2-GABRG2 was placed on the QPatch instrument in serum-free medium into the instrument's cell stirrer. […] All recordings were made at room temperature (22-24° C.).
(§2) Current records were acquired at 1 KHz and filtered at 0.3 KHz using the Bessel filter. Series resistance compensation was set to 80% in the QPatch software.
(§3) All compounds were dissolved in dimethyl sulfoxide to make 30 mM or 10 mM stock solutions, which were then diluted to 1000 times the desired final concentration in dimethyl sulfoxide. These were diluted into extracellular solution to attain the final concentrations desired. […] This concentration of dimethyl sulfoxide was present in all samples.
(§4) Currents were recorded at −60 mV, using an approximately EC10 concentration of gamma-aminobutyric acid (GABA).
(§5) Compound effect (% enhancement of gamma-aminobutyric acid current) was calculated using the following formula: [((peak modulator current amplitude−leak)−(GABA current amplitude−leak))/(GABA current amplitude−leak)]*100, where ‘leak’ is leak current at −60 mV, ‘peak modulator current amplitude’ is the current elicited by co-application of gamma-aminobutyric acid and test compound, and ‘GABA current amplitude’ is the current elicited by application of gamma-aminobutyric acid alone.
The ability of the compounds of the formula (I) to modulate the GABA channels expressing the α1 subunit (or GABRA1) can also be measured using an assay analogous to that described above but replacing the GABRA2-GABRB2-GABRG2 gene construct with the GABRA1-GABRB3-GABRG2 gene construct. All other conditions remain the same including the same cell line and conditions for cell growth.

[3] = target: GABRA2-GABRB2-GABRG2 chloride currents in HEK cells (Homo sapiens (Human), UniProt P18507+P47869); assay: QPatch whole-cell patch-clamp electrophysiology, enhancement of GABA current (α2); assay type: cell-based; settings: −60 mV, approximately EC10 GABA
GABRA2-GABRB2-GABRG2 chloride currents in HEK cells, sequence (P47869 29-451): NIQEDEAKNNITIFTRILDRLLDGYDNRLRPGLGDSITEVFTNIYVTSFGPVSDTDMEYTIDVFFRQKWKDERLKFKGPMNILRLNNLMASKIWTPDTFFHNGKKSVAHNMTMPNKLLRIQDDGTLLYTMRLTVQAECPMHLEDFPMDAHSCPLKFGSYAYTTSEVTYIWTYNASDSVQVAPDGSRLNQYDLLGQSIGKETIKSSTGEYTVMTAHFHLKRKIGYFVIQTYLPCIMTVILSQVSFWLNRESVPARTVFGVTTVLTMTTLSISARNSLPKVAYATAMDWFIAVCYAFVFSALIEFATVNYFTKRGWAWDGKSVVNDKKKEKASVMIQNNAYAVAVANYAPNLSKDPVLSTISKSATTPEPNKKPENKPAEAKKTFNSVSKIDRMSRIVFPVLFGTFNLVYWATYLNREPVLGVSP
GABRA2-GABRB2-GABRG2 chloride currents in HEK cells, sequence (P47870 26-512 partner): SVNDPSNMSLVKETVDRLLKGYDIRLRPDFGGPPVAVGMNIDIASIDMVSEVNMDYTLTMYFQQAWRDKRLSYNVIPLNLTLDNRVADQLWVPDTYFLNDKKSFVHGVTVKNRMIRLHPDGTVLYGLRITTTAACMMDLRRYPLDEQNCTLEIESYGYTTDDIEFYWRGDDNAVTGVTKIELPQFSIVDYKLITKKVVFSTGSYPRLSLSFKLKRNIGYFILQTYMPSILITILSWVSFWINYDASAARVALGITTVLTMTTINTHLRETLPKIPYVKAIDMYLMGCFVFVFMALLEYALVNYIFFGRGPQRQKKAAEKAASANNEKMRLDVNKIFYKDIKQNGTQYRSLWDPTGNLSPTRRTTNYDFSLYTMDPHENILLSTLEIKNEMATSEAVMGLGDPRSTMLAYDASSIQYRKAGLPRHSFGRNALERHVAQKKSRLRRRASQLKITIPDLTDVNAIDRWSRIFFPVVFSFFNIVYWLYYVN
GABRA2-GABRB2-GABRG2 chloride currents in HEK cells, sequence (P18507 40-475): as the sequence (P18507 40-475) above
Protocol: Human Embryonic Kidney (HEK) cells were transfected with a GABRA2-GABRB2-GABRG2 construct using standard techniques.
For QPatch electrophysiology testing, cells were harvested from flasks by enzymatic dissociation and resuspended in serum-free medium. Cells were typically used for electrophysiological experiments within 24 to 72 hours after splitting.
as §1, §2, §3, §4, §5

[4] = read-out: GABA-α2 Ki, hGABA A alpha2beta2gamma3 membranes from HEK cells, geometric mean of at least two replicates

SMILES | Ki [1, 4] | α1 PAM (% enhancement of gamma-aminobutyric acid current) [2] | α2 PAM (% enhancement of gamma-aminobutyric acid current) [3] | Ki [1]
CC(C)n1cnc2c(-c3ccc(F)c(-c4ccc5c(c4)CN(C)C5=O)c3)cnnc21 [Example 2, 5-{2-Fluoro-5-[7-(propan-2-yl)-7H-imidazo[4,5-c]pyridazin-4-yl]phenyl}-2-methyl-2,3-dihydro-1H-isoindol-1-one] | 6.4 nM | 12% | 106% | –
CCn1cnc2c(-c3ccc(F)c(-c4ccc5c(c4)C(=O)NC5)c3)cnnc21 [Example 6, 6-[5-(7-Ethyl-7H-imidazo[4,5-c]pyridazin-4-yl)-2-fluorophenyl]-2,3-dihydro-1H-isoindol-1-one] | 81.8 nM | −61% | 10% | –
CCn1cnc2c(-c3ccc(F)c(-c4cc(C(=O)N(C)C)ccc4F)c3)cnnc21 [Example 7, 5′-(7-Ethyl-7H-imidazo[4,5-c]pyridazin-4-yl)-2′,6-difluoro-N,N-dimethylbiphenyl-3-carboxamide] | 30.9 nM | – | 47% | –
CNC(=O)c1ccc(F)c(-c2cc(-c3cnnc4c3ncn4C3CC3)ccc2F)c1 [Example 8, 5′-(7-Cyclopropyl-7H-imidazo[4,5-c]pyridazin-4-yl)-2′,6-difluoro-N-methyl-biphenyl-3-carboxamide] | 29 nM | – | – | –
CCn1cnc2c(-c3ccc(F)c(-c4cccc(C(N)=O)c4)c3)cnnc21.O=C(O)C(F)(F)F [Example 15, 5′-(7-Ethyl-7H-imidazo[4,5-c]pyridazin-4-yl)-2′-fluorobiphenyl-3-carboxamide trifluoroacetate salt] | 20.3 nM | −34% | 40% | –
CCn1cnc2c(-c3ccc(F)c(-c4ccc(C(=O)N(C)C)c(F)c4)c3)cnnc21 [Example 17, 5′-(7-Ethyl-7H-imidazo[4,5-c]pyridazin-4-yl)-2′,3-difluoro-N,N-dimethylbiphenyl-4-carboxamide trifluoroacetate salt] | 52.8 nM | – | – | –
CCn1cnc2c(-c3ccc(F)c(-c4ccc(C(=O)NC(C)C)cc4)c3)cnnc21 [Example 18, 5′-(7-Ethyl-7H-imidazo[4,5-c]pyridazin-4-yl)-2′-fluoro-N-(propan-2-yl)biphenyl-4-carboxamide trifluoroacetate salt] | 19.3 nM | – | – | –
CCn1cnc2c(-c3ccc(F)c(-c4cc(F)cc(C(=O)NC)c4)c3)cnnc21.O=C(O)C(F)(F)F [Example 19, 5′-(7-Ethyl-7H-imidazo[4,5-c]pyridazin-4-yl)-2′,5-difluoro-N-methylbiphenyl-3-carboxamide trifluoroacetate salt] | 51 nM | 14% | 66% | –
CCn1cnc2c(-c3cccc(-c4ccc(C(=O)N(C)C)cc4)c3)cnnc21 [Example 20, 5′-(7-Ethyl-7H-imidazo[4,5-c]pyridazin-4-yl)-N,N-dimethyl-biphenyl-4-carboxamide trifluoroacetate salt] | 224 nM | – | – | –

Other lines, results leading:

Ki [1, 4] | α1 PAM (% enhancement of gamma-aminobutyric acid current) [2] | α2 PAM (% enhancement of gamma-aminobutyric acid current) [3] | Ki [1] | SMILES
54.7 nM | −12% | 36% | – | CN1Cc2cc(-c3cc(-c4cnnc5c4ncn5C4CC4)ccc3F)ccc2C1=O [Example 10, 5-[5-(7-Cyclopropyl-7H-imidazo[4,5-c]pyridazin-4-yl)-2-fluorophenyl]-2-methyl-2,3-dihydro-1H-isoindol-1-one]
20.5 nM | – | 60% | – | CNC(=O)c1ccc(-c2cc(-c3cnnc4c3ncn4C3CC3)ccc2F)cc1 [Example 11, 5′-(7-Cyclopropyl-7H-imidazo[4,5-c]pyridazin-4-yl)-2′-fluoro-N-methylbiphenyl-4-carboxamide]
10.7 nM | – | 48% | – | CC(C)n1cnc2c(-c3ccc(F)c(-c4ccc(C(N)=O)cc4)c3)cnnc21 [Example 12, 2′-Fluoro-5′-[7-(propan-2-yl)-7H-imidazo[4,5-c]pyridazin-4-yl]biphenyl-4-carboxamide]
7.5 nM | −55% | 11% | – | CCn1cnc2c(-c3ccc(F)c(-c4ccc(C(N)=O)cc4)c3)cnnc21 [Example 14, 5′-(7-Ethyl-7H-imidazo[4,5-c]pyridazin-4-yl)-2′-fluorobiphenyl-4-carboxamide]
– | −29% | 33% | 6.3 nM | CCn1cnc2c(-c3ccc(F)c(-c4ccc(C(=O)NC)cc4OC)c3)cnnc21 [Example 21, 5′-(7-Ethyl-7H-imidazo[4,5-c]pyridazin-4-yl)-2′-fluoro-2-methoxy-N-methylbiphenyl-4-carboxamide]
– | −1% | 23% | 81.2 nM | CCn1cnc2c(-c3ccc(F)c(-c4ccc(C(=O)N(C)C)cc4OC)c3)cnnc21 [Example 22, 5′-(7-Ethyl-7H-imidazo[4,5-c]pyridazin-4-yl)-2′-fluoro-2-methoxy-N,N-dimethylbiphenyl-4-carboxamide]
340 nM | – | – | – | CCn1cnc2c(-c3ccc(F)c(-c4cc(C(=O)N(C)C)ccc4OC)c3)cnnc21 [Example 23, 5′-(7-Ethyl-7H-imidazo[4,5-c]pyridazin-4-yl)-2′-fluoro-6-methoxy-N,N-dimethylbiphenyl-3-carboxamide]
